From patent publication US9573987B2 (priority 2011, dated 2017)

Molecular target: insulin receptor (Homo sapiens, UniProt P06213)
Test: Insulin receptor binding assay (competition, scintillation proximity)
Set-up: expressed in transfected cells; plasma membrane fragments
Conditions: Table 9

insulin receptor, sequence (P06213 28-758 limits assumed): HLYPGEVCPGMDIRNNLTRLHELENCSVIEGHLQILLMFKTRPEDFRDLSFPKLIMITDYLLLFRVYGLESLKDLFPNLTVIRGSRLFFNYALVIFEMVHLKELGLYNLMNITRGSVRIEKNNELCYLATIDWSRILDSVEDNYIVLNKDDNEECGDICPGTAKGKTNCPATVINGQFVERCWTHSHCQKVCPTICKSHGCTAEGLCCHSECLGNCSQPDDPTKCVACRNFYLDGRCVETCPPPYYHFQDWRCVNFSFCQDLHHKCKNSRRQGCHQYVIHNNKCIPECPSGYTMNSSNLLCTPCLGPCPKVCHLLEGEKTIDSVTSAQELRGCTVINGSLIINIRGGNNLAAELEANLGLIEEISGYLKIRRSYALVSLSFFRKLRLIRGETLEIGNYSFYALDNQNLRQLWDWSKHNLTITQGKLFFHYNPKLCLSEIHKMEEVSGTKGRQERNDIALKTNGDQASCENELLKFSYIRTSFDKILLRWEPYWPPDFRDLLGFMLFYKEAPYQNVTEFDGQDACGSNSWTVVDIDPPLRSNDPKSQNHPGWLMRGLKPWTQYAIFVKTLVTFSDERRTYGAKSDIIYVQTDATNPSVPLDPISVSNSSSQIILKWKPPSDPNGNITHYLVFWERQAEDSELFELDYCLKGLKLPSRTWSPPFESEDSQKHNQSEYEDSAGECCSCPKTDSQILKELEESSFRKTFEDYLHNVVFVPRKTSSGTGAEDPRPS
insulin receptor, sequence (P06213 763-1382 partner limits assumed): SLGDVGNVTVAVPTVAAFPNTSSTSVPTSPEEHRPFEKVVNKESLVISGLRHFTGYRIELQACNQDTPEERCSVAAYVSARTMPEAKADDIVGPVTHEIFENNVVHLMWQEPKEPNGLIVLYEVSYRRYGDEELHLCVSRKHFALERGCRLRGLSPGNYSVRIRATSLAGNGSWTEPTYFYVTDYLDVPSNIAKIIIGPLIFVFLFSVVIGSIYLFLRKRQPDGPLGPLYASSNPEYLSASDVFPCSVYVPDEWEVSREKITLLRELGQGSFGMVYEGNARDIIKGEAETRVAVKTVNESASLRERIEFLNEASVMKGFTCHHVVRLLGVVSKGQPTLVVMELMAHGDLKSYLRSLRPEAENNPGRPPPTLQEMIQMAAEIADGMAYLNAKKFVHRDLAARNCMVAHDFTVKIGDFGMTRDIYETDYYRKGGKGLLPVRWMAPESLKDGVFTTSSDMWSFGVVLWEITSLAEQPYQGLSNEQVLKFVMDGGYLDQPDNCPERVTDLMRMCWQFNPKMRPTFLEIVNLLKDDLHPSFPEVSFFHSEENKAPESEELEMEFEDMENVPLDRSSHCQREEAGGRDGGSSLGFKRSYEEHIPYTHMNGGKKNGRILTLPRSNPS

Row | Compound | Insulin Receptor % insulin (in test) [%]
1 | CC[C@H](C)[C@H](NC(=O)CN)C(=O)N[C@H](C(=O)N[C@@H](CC(=O)O)C(=O)N[C@@H](CCC(=O)O)C(=O)N[C@H]1CSSC[C@@H]2NC(=O)[C@H](CO)NC(=O)[C@H](C)NC(=O)[C@H](Cc3c[nH]cn3)NC(=O)[C@H](CSSC[C@H](NC(=O)[C@H](CC(C)C)NC(=O)[C@H](Cc3c[nH]cn3)NC(=O)[C@H](CCC(=O)O)NC(=O)[C@@H]3CCCN3C(=O)CN)C(=O)NCC(=O)N[C@@H](C)C(=O)N[C@@H](CC(=O)O)C(=O)N[C@@H](CC(C)C)C(=O)N[C@@H](C(C)C)C(=O)N[C@@H](CC(=O)O)C(=O)N[C@@H](C)C(=O)N[C@@H](CC(C)C)C(=O)N[C@@H](Cc3ccc(O)cc3)C(=O)N[C@@H](CC(C)C)C(=O)N[C@@H](C(C)C)C(=O)N[C@H](C(=O)NCC(=O)N[C@@H](CC(=O)O)C(=O)N[C@@H](C)C(=O)NCC(=O)N[C@@H](Cc3ccccc3)C(=O)N[C@@H](Cc3ccc(O)cc3)C(N)=O)CSSC[C@@H](C(=O)N[C@@H](CC(N)=O)C(=O)O)NC(=O)[C@H](Cc3ccc(O)cc3)NC(=O)[C@H](CC[S+](C)[O-])NC(=O)[C@H](CCC(=O)O)NC(=O)[C@H](CC(C)C)NC(=O)[C@H](CCCNC(=N)N)NC(=O)[C@H](CCCNC(=N)N)NC(=O)[C@H](CC(C)C)NC(=O)[C@H](CC(=O)O)NC2=O)NC1=O)C(C)C (some centres unmarked) | 400.7
2 | CC[C@H](C)[C@H](NC(=O)CN)C(=O)N[C@H](C(=O)N[C@@H](CC(=O)O)C(=O)N[C@@H](CCC(=O)O)C(=O)N[C@H]1CSSC[C@@H]2NC(=O)[C@H](CO)NC(=O)[C@H](CCCNC(=N)N)NC(=O)[C@H](Cc3ccccc3)NC(=O)[C@H](CSSC[C@H](NC(=O)[C@H](CC(C)C)NC(=O)[C@H](Cc3c[nH]cn3)NC(=O)[C@H](CCC(=O)O)NC(=O)[C@@H]3CCCN3C(=O)CN)C(=O)NCC(=O)N[C@@H](C)C(=O)N[C@@H](CC(=O)O)C(=O)N[C@@H](CC(C)C)C(=O)N[C@@H](C(C)C)C(=O)N[C@@H](CC(=O)O)C(=O)N[C@@H](C)C(=O)N[C@@H](CC(C)C)C(=O)N[C@@H](Cc3ccc(O)cc3)C(=O)N[C@@H](CC(C)C)C(=O)N[C@@H](C(C)C)C(=O)N[C@H](C(=O)NCC(=O)N[C@@H](CC(=O)O)C(=O)N[C@@H](CCCNC(=N)N)C(=O)NCC(=O)N[C@@H](Cc3ccccc3)C(=O)N[C@@H](Cc3ccc(O)cc3)C(N)=O)CSSC[C@@H](C(=O)N[C@@H](C)C(N)=O)NC(=O)[C@H](Cc3ccc(O)cc3)NC(=O)[C@H](CC[S+](C)[O-])NC(=O)[C@H](CCC(=O)O)NC(=O)[C@H](CC(C)C)NC(=O)[C@H](CCCNC(=N)N)NC(=O)[C@H](CCCNC(=N)N)NC(=O)[C@H](CC(C)C)NC(=O)[C@H](CC(=O)O)NC2=O)NC1=O)C(C)C (some centres unmarked) [IGF-1 A:B (H5D10Y16L17) (S═O)DPI] | 316.0
